{"source": "BindingDB's records for doi:10.1016/s0960-894x(98)00237-6", "about": "(Fujisawa Pharmaceutical, 1999)", "key": {"[1]": {"test": "Compound was evaluated for the inhibition of […] I-CCK-8 binding at Cholecystokinin type B receptor on guinea pig cerebral cortical membranes"}, "[2]": {"test": "Compound was evaluated for the inhibition of […] I-CCK-8 binding at CCK-B receptor Cholecystokinin type B receptor cerebral cortical membranes"}}}
{"smiles": "O=C(Nc1cccc(-c2nnn[nH]2)c1)NC1N=C(c2ccccc2F)c2ccccc2N(CC(=O)N2CC3CCC(CC3)C2)C1=O", "note": "(stereo not drawn) [1-[1-[2-(3-Aza-bicyclo[3.2.2]non-3-yl)-2-oxo-ethyl]-5-(2-fluoro-phenyl)-2-oxo-2,3-dihydro-1H-benzo[e][1,4]diazepin-3-yl]-3-[3-(1H-tetrazol-5-yl)-phenyl]-urea]", "values": [{"measurement": "IC50", "setting": "[1]", "result": 0.087, "unit": "nM"}]}
{"smiles": "O=C(Nc1cccc(-c2nnn[nH]2)c1)NC1N=C(c2ccccc2F)c2cccc(Cl)c2N(CC(=O)N2CC3CCC(CC3)C2)C1=O", "note": "(stereo not drawn) [1-[1-[2-(3-Aza-bicyclo[3.2.2]non-3-yl)-2-oxo-ethyl]-9-chloro-5-(2-fluoro-phenyl)-2-oxo-2,3-dihydro-1H-benzo[e][1,4]diazepin-3-yl]-3-[3-(1H-tetrazol-5-yl)-phenyl]-urea]", "values": [{"measurement": "IC50", "setting": "[2]", "result": 0.66, "unit": "nM"}]}
{"smiles": "CCc1cccc2c1N(CC(=O)N1CC3CCC(CC3)C1)C(=O)C(NC(=O)Nc1cccc(-c3nnn[nH]3)c1)N=C2c1ccccc1F", "note": "(stereo not drawn) [1-[1-[2-(3-Aza-bicyclo[3.2.2]non-3-yl)-2-oxo-ethyl]-9-ethyl-5-(2-fluoro-phenyl)-2-oxo-2,3-dihydro-1H-benzo[e][1,4]diazepin-3-yl]-3-[3-(1H-tetrazol-5-yl)-phenyl]-urea]", "values": [{"measurement": "IC50", "setting": "[1]", "result": 0.81, "unit": "nM"}]}
